One may read the EC50 as the concentration at which the effect is half-maximal. Usually Tmax stands for the time from dosing to the highest level. In general, AUC(0-t) refers to the area under the concentration-time curve up to a stated or last time point. By bioavailability is commonly meant dose-corrected exposure relative to a reference, in per cent. The term Cmax denotes the peak of the concentration-time curve. By clearance is commonly meant a measure of how efficiently the substance is removed, as volume per time. In general, half-life refers to the time in which the quantity being followed falls by half.

The text below walks through data of US20210047324A1 (Aptinyx Inc., priority 2018, published 2021).

One data set deals with T1, NMDAR2C (Homo sapiens, UniProt Q14957).
T1 construct: expressed in transfected cells; host or cells: HEK cells (membrane extract)
The data set is described as follows: NMDAR agonist assay, [3H]MK-801 binding, NMDAR2C expressing HEK cell membranes. It counts as biochemical. The settings on record: 50 μM glutamate; for EC50: read-out: NMDAR2C B: log EC50 (converted). On the procedure:
(§1) Assays were conducted as described by Moskal et al., “GLYX-13: a monoclonal antibody-derived peptide that acts as an N-methyl-D-aspartate receptor modulator,” Neuropharmacology, 49, 1077-87, 2005. These studies were designed to determine if the test compounds act to facilitate NMDAR activation in NMDAR2A, NMDAR2B, NMDAR2C or NMDAR2D expressing HEK cell membranes as measured by increases in [^3H]MK-801 binding.
(§2) In the assay, 300 μg of NMDAR expressing HEK cell membrane extract protein was preincubated for 15 minutes at […] in the presence of saturating concentrations of glutamate (50 μM) and varying concentrations of test compound (1×10^−15M-1×10^−7M), or 1 mM glycine. Following the addition of 0.3 μCi of [3H]MK-801 (22.5 Ci/mmol), reactions were again incubated for 15 minutes at 25° C. (nonequilibrium conditions). Bound and free [3H]MK-801 were separated via rapid filtration using a Brandel apparatus.
(§3) In analyzing the data, the DPM (disintegrations per minute) of [3H]MK-801 remaining on the filter were measured for each concentration of test compound or for 1 mM glycine. The DPM values for each concentration of a ligand (N=2) were averaged. The baseline value was determined from the best fit curve of the DPM values modeled using the GraphPad program and the log(agonist) vs. response (three parameters) algorithm was then subtracted from all points in the dataset. The % maximal [^3H]MK-801 binding was then calculated relative to that of 1 mM glycine: all baseline subtracted DPM values were divided by the average value for 1 mM glycine. The EC50 and % maximal activity were then obtained from the best fit curve of the % maximal [3H]MK-801 binding data modelled using the GraphPad program and the log(agonist) vs. response (three parameters) algorithm.
(§4) The tables below summarize the results for the wild type […] NMDAR2A, NMDAR2B, NMDAR2C, and NMDAR2D, and whether the compound is not an agonist (−), is an agonist (+), or is a strong agonist (++), where column A is based on the % maximal [3H]MK-801 binding relative to 1 mM glycine (−=0; <100%=+; and >100%=++); and column B is based on log EC50 values (0=−; ≥1×10^−9 M (e.g., −8)=+; and <1×10^−9 M (e.g., −10)=++).

Data set [1] concerns the target T2, NMDAR2D (Homo sapiens, UniProt O15399).
T2 construct: expressed in transfected cells; host or cells: HEK cells (membrane extract)
The data set is described as follows: NMDAR agonist assay, [3H]MK-801 binding, NMDAR2D expressing HEK cell membranes. It counts as biochemical. The settings on record: 50 μM glutamate; relative to 1 mM glycine. On the procedure:
as §1, §2, §3, §4

Data set [2] deals with T3, NMDAR2D (Homo sapiens, UniProt O15399+Q05586).
T3 construct: expressed in transfected cells; host or cells: HEK cells (membrane extract)
The data set is described as above. It counts as biochemical. The note with it: 50 μM glutamate; read-out: NMDAR2D B: log EC50 (converted). The procedure: as §1, §2, §3, §4

For a further data set, the target named is T4, NMDAR2A (Homo sapiens, UniProt Q12879).
T4 construct: expressed in transfected cells; host or cells: HEK cells (membrane extract)
The data set is described as follows: NMDAR agonist assay, [3H]MK-801 binding, NMDAR2A expressing HEK cell membranes. It counts as biochemical. The arrangement: key to NMDAR2A B: log EC50: 0=−; ≥1×10^−9 M (e.g., −8)=+; <1×10^−9 M (e.g., −10)=++. The settings on record: 50 μM glutamate; for Emax: 0.25 h, relative to 1 mM glycine, read-out: NMDAR2A A: % maximal [3H]MK-801 binding relative to 1 mM glycine; for EC50: read-out: NMDAR2A B: log EC50 (converted). An outline of the steps: (§5)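 Membranes from HEK cells (300 μg protein) preincubated 15 min with 50 μM glutamate plus compound (1×10^−15–1×10^−7 M) or 1 mM glycine, then with 0.3 μCi [3H]MK-801 for 15 min at 25° C. (nonequilibrium); filter-bound DPM, baseline-subtracted, expressed as % of 1 mM glycine; EC50 and % maximum from three-parameter fit.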

The target of the next data set is T5, NMDAR2B (Homo sapiens, UniProt Q13224).
T5 construct: expressed in transfected cells; host or cells: HEK cells (membrane extract)
The data set is described as follows: NMDAR agonist assay, [3H]MK-801 binding, NMDAR2B expressing HEK cell membranes. It counts as biochemical. The settings on record: 50 μM glutamate; for EC50: read-out: NMDAR2B B: log EC50 (converted); for Emax: relative to 1 mM glycine, read-out: NMDAR2B A: % maximal [3H]MK-801 binding relative to 1 mM glycine. An outline of the steps:
as §5

A short description of data set [3]: Microsomal stability (Rat). Type of data set: in vitro ADME. The settings on record: after 60 minutes. The procedure: (§6) Microsomal stability of disclosed compounds was investigated. The following table indicates the percent of compound remaining after 60 minutes.
A further data set is described as follows: Plasma stability (Human). It counts as in vitro ADME. The note with it: after 60 minutes. On the procedure: (§7) Plasma stability of disclosed compounds was investigated. The following table indicates the percent of compound remaining after 60 minutes.
Data set [4] is described as follows: Microsomal stability (Human). It counts as in vitro ADME. The settings on record: after 60 minutes. The procedure:
as §6

Another data set is described as follows: Plasma stability (Rat). It counts as in vitro ADME. The settings on record: after 60 minutes. On the procedure: as §7
A short description of data set [5]: Oral pharmacokinetics in Sprague Dawley rats (plasma, brain, CSF). It counts as in vivo. The settings on record: rat, 10 mg/kg; for Tmax / AUC(0-t) / bioavailability / Cmax: Sprague-Dawley, po, plasma; for Tmax / AUC(0-t) / Cmax / CSF Cmax / Brain Cmax: per os; for Tmax: read-out: Tmax; for bioavailability: per os 10 mg/kg; for Cmax: read-out: Cmax. On the procedure:
In another experiment, Sprague Dawley rats were dosed per os (oral gavage) using a normal saline formulation containing 10 mg/kg of the compounds identified in the table below. Plasma, brain, and CSF samples were analyzed at various time points over a 24 hour period. The table below summarizes the results of the oral pharmacokinetics, where the first three values (Tmax, Cmax and AUClast) are plasma values.

Data set [6] in a line: IV pharmacokinetics in Sprague Dawley rats. Type of data set: in vivo. The note with it: Sprague-Dawley, rat, in vivo, iv, 2 mg/kg, normal saline; for Cmax: read-out: Cmax; for Vd: read-out: Vss. On the procedure: Sprague Dawley rats were dosed intravenously using a normal saline formulation containing 2 mg/kg of the compounds identified in the below table. The table below summarizes the results of the IV pharmacokinetics.

The next data set has as its system Sprague Dawley rats. Description: Porsolt forced swim test. Type of data set: in vivo. The settings on record: 0.1 mg/kg. On the procedure:
A non-clinical in vivo pharmacology study (Porsolt assay) was performed to measure antidepressant-like effects. The study allowed for the evaluation of the effects of each compound on the Porsolt forced swim test as assessed by the rats' response (reduced floating time) during a 5-minute swimming test.
Male 2-3 month old Sprague Dawley rats were used (Harlan, Indianapolis, Ind.). Rats were housed in Lucite cages with aspen wood chip bedding, maintained on a 12:12 light:dark cycle (lights on at 5 AM), and given ad libitum access to Purina lab chow (USA) and tap water throughout the study.
The Porsolt forced swim test adapted for use in rats was performed as described by Burgdorf et al., (The long-lasting antidepressant effects of rapastinel (GLYX-13) are associated with a metaplasticity process in the medial prefrontal cortex and hippocampus. Neuroscience 308:202-211, 2015). Animals were placed in a 46 cm tall×20 cm in diameter clear glass tube filled to 30 cm with tap water (23±1° C.) for 15 min on the first day (habituation) and 5 min on the subsequent test day. Animals were tested 1 h or 24 h post-dosing with the test compounds or vehicle control (0.5% sodium carboxymethyl cellulose in 0.9% sterile saline). A subset of compounds tested at 1 h post-dosing was tested again 1 wk post-dosing. Animals received a 15 min habituation session 1 day before the first 5 min test. Water was changed after every other animal. Animals were videotaped, and floating time as defined as the minimal amount of effort required to keep the animals head above water was scored offline by a blinded experimenter with high inter-rater reliability (Pearson's r >0.9).

Some results are limits rather than exact numbers.

T4 sequence (Q12879 23-1464, species assumed, other chains not shown): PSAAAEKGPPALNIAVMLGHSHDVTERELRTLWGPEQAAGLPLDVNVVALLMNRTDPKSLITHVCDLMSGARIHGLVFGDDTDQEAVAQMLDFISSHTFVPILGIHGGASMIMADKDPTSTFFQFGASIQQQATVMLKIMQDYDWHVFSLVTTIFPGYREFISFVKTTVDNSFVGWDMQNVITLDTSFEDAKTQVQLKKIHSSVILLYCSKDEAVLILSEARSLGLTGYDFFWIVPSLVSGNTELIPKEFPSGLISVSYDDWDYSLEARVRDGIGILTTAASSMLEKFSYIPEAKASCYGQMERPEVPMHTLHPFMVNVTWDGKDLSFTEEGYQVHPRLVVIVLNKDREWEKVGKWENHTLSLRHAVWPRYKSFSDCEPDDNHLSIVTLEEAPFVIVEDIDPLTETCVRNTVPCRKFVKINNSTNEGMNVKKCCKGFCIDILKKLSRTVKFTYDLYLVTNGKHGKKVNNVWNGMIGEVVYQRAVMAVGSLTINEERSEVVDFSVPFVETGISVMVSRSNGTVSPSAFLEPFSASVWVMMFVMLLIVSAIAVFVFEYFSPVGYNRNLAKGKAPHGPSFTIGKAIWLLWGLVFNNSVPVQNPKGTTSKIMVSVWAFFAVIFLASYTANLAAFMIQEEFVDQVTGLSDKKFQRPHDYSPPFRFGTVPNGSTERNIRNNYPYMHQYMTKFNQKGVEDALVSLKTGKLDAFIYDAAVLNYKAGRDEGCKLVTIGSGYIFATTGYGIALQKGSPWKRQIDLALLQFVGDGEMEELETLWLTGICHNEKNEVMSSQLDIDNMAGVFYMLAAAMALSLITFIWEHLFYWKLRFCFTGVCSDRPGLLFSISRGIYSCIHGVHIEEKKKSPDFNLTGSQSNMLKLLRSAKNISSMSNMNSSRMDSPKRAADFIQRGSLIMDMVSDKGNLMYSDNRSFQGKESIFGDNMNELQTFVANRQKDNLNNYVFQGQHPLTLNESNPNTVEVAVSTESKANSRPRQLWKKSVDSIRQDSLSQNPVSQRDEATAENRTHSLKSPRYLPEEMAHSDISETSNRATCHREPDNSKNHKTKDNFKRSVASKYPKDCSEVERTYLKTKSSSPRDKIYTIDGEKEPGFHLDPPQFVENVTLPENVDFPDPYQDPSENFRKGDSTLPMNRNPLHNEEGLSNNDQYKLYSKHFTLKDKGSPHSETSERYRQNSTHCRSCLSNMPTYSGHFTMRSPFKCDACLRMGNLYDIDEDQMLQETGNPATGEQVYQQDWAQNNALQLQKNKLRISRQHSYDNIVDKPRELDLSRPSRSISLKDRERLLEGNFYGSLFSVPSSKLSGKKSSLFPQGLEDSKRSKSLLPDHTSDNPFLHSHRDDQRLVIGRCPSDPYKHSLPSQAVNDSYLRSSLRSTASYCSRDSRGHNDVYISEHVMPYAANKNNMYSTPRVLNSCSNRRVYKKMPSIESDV
T5 sequence (Q13224 27-1484, species assumed, other chains not shown): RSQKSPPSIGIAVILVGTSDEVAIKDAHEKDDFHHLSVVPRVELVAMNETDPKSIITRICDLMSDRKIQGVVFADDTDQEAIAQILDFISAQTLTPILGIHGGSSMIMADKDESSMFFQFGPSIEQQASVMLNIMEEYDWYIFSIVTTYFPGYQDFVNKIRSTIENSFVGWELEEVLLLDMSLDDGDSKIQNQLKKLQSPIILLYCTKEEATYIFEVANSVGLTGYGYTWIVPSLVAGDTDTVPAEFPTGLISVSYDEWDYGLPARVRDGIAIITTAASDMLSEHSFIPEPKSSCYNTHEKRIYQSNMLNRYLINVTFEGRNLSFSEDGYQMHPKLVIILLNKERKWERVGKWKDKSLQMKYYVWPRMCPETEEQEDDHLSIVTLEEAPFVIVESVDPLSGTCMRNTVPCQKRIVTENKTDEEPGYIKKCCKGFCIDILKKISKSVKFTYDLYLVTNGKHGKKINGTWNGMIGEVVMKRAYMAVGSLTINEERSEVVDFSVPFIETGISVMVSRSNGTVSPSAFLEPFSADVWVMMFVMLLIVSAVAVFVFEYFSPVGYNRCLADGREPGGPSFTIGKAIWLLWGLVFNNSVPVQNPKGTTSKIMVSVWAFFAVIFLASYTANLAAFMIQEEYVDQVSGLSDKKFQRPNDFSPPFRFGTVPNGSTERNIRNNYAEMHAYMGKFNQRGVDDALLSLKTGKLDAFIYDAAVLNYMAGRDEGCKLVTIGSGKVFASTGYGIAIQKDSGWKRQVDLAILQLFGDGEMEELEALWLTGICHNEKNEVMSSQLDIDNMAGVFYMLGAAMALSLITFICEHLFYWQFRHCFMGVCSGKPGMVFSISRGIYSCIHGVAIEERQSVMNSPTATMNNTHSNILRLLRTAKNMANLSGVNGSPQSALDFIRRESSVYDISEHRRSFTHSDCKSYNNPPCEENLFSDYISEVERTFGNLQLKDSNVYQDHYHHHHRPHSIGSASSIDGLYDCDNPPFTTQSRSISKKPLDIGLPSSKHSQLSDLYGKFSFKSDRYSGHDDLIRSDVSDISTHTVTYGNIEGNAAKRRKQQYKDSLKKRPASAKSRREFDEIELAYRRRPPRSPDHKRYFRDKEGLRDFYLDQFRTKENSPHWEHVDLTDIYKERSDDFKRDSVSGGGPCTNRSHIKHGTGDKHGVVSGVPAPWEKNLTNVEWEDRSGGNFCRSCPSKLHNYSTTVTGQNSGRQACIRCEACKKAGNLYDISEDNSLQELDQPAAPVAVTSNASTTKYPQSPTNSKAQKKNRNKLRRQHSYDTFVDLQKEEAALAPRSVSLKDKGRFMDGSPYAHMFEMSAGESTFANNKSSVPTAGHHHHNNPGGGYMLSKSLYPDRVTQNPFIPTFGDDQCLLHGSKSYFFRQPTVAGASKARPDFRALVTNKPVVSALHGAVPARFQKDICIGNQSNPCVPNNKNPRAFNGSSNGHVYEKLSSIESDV
T1 sequence (Q14957 20-1233, species assumed, other chains not shown): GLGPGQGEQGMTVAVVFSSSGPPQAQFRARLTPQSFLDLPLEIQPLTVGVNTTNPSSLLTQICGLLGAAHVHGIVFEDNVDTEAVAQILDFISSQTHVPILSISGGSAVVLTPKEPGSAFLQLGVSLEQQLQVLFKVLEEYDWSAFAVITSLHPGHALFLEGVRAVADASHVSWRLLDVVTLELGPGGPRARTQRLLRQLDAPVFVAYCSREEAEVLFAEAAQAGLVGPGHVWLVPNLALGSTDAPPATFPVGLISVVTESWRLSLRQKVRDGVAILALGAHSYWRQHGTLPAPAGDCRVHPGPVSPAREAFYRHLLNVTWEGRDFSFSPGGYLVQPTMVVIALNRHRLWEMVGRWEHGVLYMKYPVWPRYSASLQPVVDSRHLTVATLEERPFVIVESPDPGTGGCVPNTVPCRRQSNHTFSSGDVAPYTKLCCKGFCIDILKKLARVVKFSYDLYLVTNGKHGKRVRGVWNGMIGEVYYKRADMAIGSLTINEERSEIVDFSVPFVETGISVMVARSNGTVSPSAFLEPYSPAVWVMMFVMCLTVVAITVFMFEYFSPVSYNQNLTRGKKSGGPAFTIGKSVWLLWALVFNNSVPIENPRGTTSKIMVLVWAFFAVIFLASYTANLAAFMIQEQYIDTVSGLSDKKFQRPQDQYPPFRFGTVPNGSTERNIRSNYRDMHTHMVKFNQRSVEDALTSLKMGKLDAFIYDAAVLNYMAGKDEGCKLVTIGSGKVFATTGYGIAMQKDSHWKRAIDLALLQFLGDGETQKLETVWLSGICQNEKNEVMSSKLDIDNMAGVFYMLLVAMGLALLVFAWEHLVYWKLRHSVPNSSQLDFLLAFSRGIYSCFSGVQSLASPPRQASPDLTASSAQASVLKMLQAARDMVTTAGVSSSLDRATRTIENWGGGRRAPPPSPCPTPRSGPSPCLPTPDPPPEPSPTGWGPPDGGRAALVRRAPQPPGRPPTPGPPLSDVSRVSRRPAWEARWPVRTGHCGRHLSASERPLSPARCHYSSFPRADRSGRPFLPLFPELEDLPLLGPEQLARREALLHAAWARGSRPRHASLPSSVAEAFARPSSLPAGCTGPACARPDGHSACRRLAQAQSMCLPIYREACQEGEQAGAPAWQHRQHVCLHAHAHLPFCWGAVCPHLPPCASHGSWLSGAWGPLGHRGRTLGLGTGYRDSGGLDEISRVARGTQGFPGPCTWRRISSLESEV

For the compound `O=C1NCCCC[C@@]12CCCN2` [AU-2, (R)-1,7-diazaspiro[4.6]undecan-6-one], at NMDAR2C, the EC50 was below 1 nM and the “NMDAR2C A: % maximal [3H]MK-801 binding relative to 1 mM glycine” value is on record as “+ (<100%=+)”. For the same compound, the “NMDAR2D A: % maximal [3H]MK-801 binding relative to 1 mM glycine” value on NMDAR2D [1] was “+ (<100%=+)”. On NMDAR2D [2], the concentration for a half-maximal effect (EC50) is below 1 nM. Further, at NMDAR2A, the “NMDAR2A B: log EC50” value is recorded as “−” and the Emax was 0%. Besides, at NMDAR2B, the EC50 is below 1 nM and the Emax is below 100%.

Take `CC(C)(C)OC(=O)N1CCCCCC12CNC2=O` (single isomer, unassigned) [EI-1, tert-butyl 1-oxo-2,5-diazaspiro[3.6]decane-5-carboxylate]: the “NMDAR2D A: % maximal [3H]MK-801 binding relative to 1 mM glycine” value at NMDAR2D [1] is on record as “+ (<100%=+)”. Besides, the EC50 on NMDAR2D [2] was below 1 nM. At NMDAR2A, the EC50 is below 1 nM and the Emax is below 100%.

Consider `O=C1NCCCC12CCCN2` (stereo not shown) [EU-2, 1,7-diazaspiro[4.5]decan-6-one], for which the “Microsomal (Rat): percent of compound remaining” value in data set [3] amounted to 94%. Besides, the “Plasma (Human): percent of compound remaining” value in the data set “Plasma stability (Human)” was 74%. The “Microsomal (Human): percent of compound remaining” value in [4] is given as 100%. In addition, on NMDAR2C, the EC50 is below 1 nM and the “NMDAR2C A: % maximal [3H]MK-801 binding relative to 1 mM glycine” value is reported as “+ (<100%=+)”. Besides, the “NMDAR2D A: % maximal [3H]MK-801 binding relative to 1 mM glycine” value at NMDAR2D [1] is listed as “++ (>100%=++)”. For the same compound, on NMDAR2D [2], the EC50 is below 1 nM. Besides, the “NMDAR2A B: log EC50” value on NMDAR2A is reported as “−”. For the same compound, the EC50 at NMDAR2B is below 1 nM. In addition, the “Plasma (Rat): percent of compound remaining” value in the data set “Plasma stability (Rat)” was found to be 95%. For the same compound, in data set [5], the Tmax worked out at 60 min, the AUC(0-t) stood at 4430 ng·h/mL, the bioavailability was found to be 100% and the Cmax was 1860 ng/mL. Moreover, in data set [5], the “CSF Cmax” value is recorded as 436.7 ng/mL and the “Brain Cmax” value was 593.1 ng/mL. In addition, in data set [6], the AUC(0-t) worked out at 4000 ng·h/mL, the clearance was found to be 8.79 mL/min/kg, the half-life is 96.6 min and the Cmax was found to be 2140 ng/mL. The Vd in data set [6] stood at 0.94 L/kg. Moreover, in the data set with Sprague Dawley rats (1 wk post-dose), the “% reduction in float time” value stood at 46% and the Significance vs. vehicle entry is given as “Yes”. Further, in the data set on Sprague Dawley rats (1 h post-dose), the “% reduction in float time” value was found to be 55% and the Significance vs. vehicle result is listed as “Yes”.

On to `CC(C)(C)OC(=O)N1CCCC12CCCNC2=O` (single isomer, unassigned) [EV-1, tert-butyl 6-oxo-1,7-diazaspiro[4.5]decane-1-carboxylate], for which the “Microsomal (Rat): percent of compound remaining” value in [3] was determined as 100%. Besides, the “Plasma (Human): percent of compound remaining” value in “Plasma stability (Human)” was found to be 98%. Besides, the “Microsomal (Human): percent of compound remaining” value in data set [4] is 95%. For the same compound, on NMDAR2C, the EC50 was below 1 nM and the “NMDAR2C A: % maximal [3H]MK-801 binding relative to 1 mM glycine” value was “+ (<100%=+)”. Moreover, the “NMDAR2D A: % maximal [3H]MK-801 binding relative to 1 mM glycine” value on NMDAR2D [1] is listed as “+ (<100%=+)”. Also, the EC50 at NMDAR2D [2] was below 1 nM. On NMDAR2A, the EC50 is below 1 nM and the Emax is below 100%. Further, on NMDAR2B, the concentration giving a half-maximal response (EC50) is below 1 nM and the Emax was below 100%. Further, in the data set “Plasma stability (Rat)”, the “Plasma (Rat): percent of compound remaining” value stood at 94%. For the same compound, in data set [5], the Tmax was 15 min, the area under the curve AUC(0-t) is 2850 ng·h/mL, the bioavailability came to 45% and the Cmax is 3690 ng/mL. Moreover, in data set [5], the “CSF Cmax” value was 1414.8 ng/mL and the “Brain Cmax” value turned out to be 1457.4 ng/mL. Further, in data set [6], the exposure AUC(0-t) was determined as 1270 ng·h/mL, the clearance was determined as 26.2 mL/min/kg, the half-life is 25.2 min and the Cmax came to 2730 ng/mL. Besides, the Vd in data set [6] amounted to 0.72 L/kg. Also, in the data set on Sprague Dawley rats (1 h post-dose), the “% reduction in float time” value turned out to be 53% and the Significance vs. vehicle result was “Yes”. Further, in the data set on Sprague Dawley rats (24 h post-dose), the “% reduction in float time” value is reported as 45% and the Significance vs. vehicle result is on record as “Yes”.
